Experimental findings from patent publication US3944557A, “Pyridinium salts” (Commonwealth Scientific & Industrial Research Organization, priority 1973, dated 1976) are described below.

One assay deals with Phytophthora cinnamomi. Nature of the assay: Protection of lupin seedlings from infection by P. cinnamomi. In kind it is in vivo. The note with it: Table 7. An excerpt: Protection of lupin seedlings from infection by […]
The next assay has as its system Rhizoctonia solani. Put plainly: Infection of cotton seedlings by Rh. solani (soil application). As to conditions: Table 7, 16 kg/ha, read-out: Protection of cotton seedlings from infection by Rh. solani. In kind it is in vivo. The text has this:
Infection of cotton seedlings by Rh. solani
100% protection at 16 kg/ha (soil application) ++
50% protection at 16 kg/ha (soil application) +

The test system of the next assay is Monolinia fructicola. Nature of the assay: Inhibition of spore germination of M. fructicola. In kind it is cell-based. The note with it: Monilinia fructicola; Table 7; read-out: 50% inhibition of spore germination (Monolinia fructicola spore germination). An excerpt: 50% inhibition of spore germination of M. fructicola
The subject of the next assay is Fusarium oxysporum. Nature of the assay: Infection of tomato seedlings by F. oxysporum (soil application). In kind it is in vivo. As to conditions: read-out: Protection of tomato seedlings from infection by F. oxysporum. An excerpt: Infection of tomato seedlings by F. oxysporum
100% protection 8 kg/ha (soil application) ++
50% protection at 8 kg/ha (soil application) +

For orientation: minimal effective concentration means the smallest amount tested that counted as effective. Higher therefore signals weaker potency. Take `CC(C)Nc1cc(N)[n+](C(C)C)c(S(=O)(=O)[O-])c1C#N` [Compound 59]: the minimal effective concentration in the assay on Phytophthora cinnamomi is greater than 8 µg/mL. The pest or weed control at 16000 g/ha in the assay on Rhizoctonia solani turned out to be 100%.

For the compound `CCCCCCNc1cc(N)[n+](CCCCCC)c(NCCCC)c1C#N.[Cl-]` [Compound 42, 2-amino-6-n-butylamino-5-cyano-1-n-hexyl-4-n-hexylamino pyridinium chloride], the IC50 in the assay on Monolinia fructicola was no more than 5 µg/mL. In the assay with Phytophthora cinnamomi, this compound yielded a minimal effective concentration of no more than 2 µg/mL.

For the compound `N#Cc1c(NCc2ccccc2)cc(N)[n+](Cc2ccccc2)c1Cl` [Compound 17], in the assay on Monolinia fructicola, the IC50 was in the range of 5 to 50 µg/mL. This compound had a minimal effective concentration in the assay with Phytophthora cinnamomi of 2 to 8 µg/mL. For the same compound, the pest or weed control at 8000 g/ha in the assay with Fusarium oxysporum was 50%.

`CCCCNc1cc(N)[n+](CCCC)c(NCc2ccco2)c1C#N` [Compound 36]: the IC50 in the assay with Monolinia fructicola was in the range of 5 to 50 µg/mL. The compound further registered a minimal effective concentration in the assay on Phytophthora cinnamomi of 2 to 8 µg/mL. Moreover, the pest or weed control at 16000 g/ha in the assay on Rhizoctonia solani is 50%.

Consider `CCCCCCNc1cc(N)[n+](CCCCCC)c(Sc2ccccc2)c1C#N.[Cl-]` [Compound 78, 2-amino-5-cyano-1-n-hexyl-4-n-hexylamino-6-phenylmercapto pyridinium chloride], for which, in the assay on Monolinia fructicola, the IC50 was no more than 5 µg/mL. For the same compound, in the assay on Phytophthora cinnamomi, the minimal effective concentration is no more than 2 µg/mL. Besides, the pest or weed control at 16000 g/ha in the assay with Rhizoctonia solani came to 50%.

Take `CCCCCCCCNc1cc(N)[n+](CCCCCCCC)c(Cl)c1C#N.[Cl-]` [Compound 14, 2-amino-6-chloro-5-cyano-1-n-octyl-4-n-octylamino pyridinium chloride]: the IC50 with Monolinia fructicola was no more than 5 µg/mL. For the same compound, in the assay on Phytophthora cinnamomi, the minimal effective concentration is no more than 2 µg/mL. For the same compound, the pest or weed control at 16000 g/ha in the assay on Rhizoctonia solani worked out at 100%. Besides, the pest or weed control at 8000 g/ha in the assay on Fusarium oxysporum was found to be 50%.

For `CCCCCCCCNc1c(C#N)c(NCCCCCC)cc(N)[n+]1CCCCCC` [Compound 44], the IC50 in the assay with Monolinia fructicola was no more than 5 µg/mL. In the assay on Phytophthora cinnamomi, this compound returned a minimal effective concentration of no more than 2 µg/mL. In the assay on Fusarium oxysporum, the pest or weed control at 8000 g/ha turned out to be 50%.

The compound `CCCCCCCCCCCCNc1c(C#N)c(NC)cc(N)[n+]1C` [Compound 27] gave a minimal effective concentration with Phytophthora cinnamomi of 30 µg/mL. In addition, in the assay with Rhizoctonia solani, the pest or weed control at 16000 g/ha was 100%.

Consider `CCCCCCCCNc1cc(N)[n+](CCCCCCCC)c(N)c1C#N` [Compound 46], for which the IC50 with Monolinia fructicola is no more than 5 µg/mL. The same compound gave a minimal effective concentration with Phytophthora cinnamomi of no more than 2 µg/mL. For the same compound, the pest or weed control at 16000 g/ha with Rhizoctonia solani came to 50%.

As to `CCCCCCNc1c(Br)c(N)[n+](CCCCCC)c(Cl)c1C#N` [Compound 67], the IC50 with Monolinia fructicola was no more than 5 µg/mL. The minimal effective concentration in the assay with Phytophthora cinnamomi fell in the range of 2 to 8 µg/mL. For the same compound, in the assay on Fusarium oxysporum, the pest or weed control at 8000 g/ha was determined as 50%.

In the assay on Phytophthora cinnamomi, `CNc1cc(N)[n+](C)c(NCc2ccco2)c1C#N` [Compound 23] registered a minimal effective concentration greater than 8 µg/mL. For the same compound, the pest or weed control at 8000 g/ha in the assay on Fusarium oxysporum stood at 100%.

As for `CCCCCCCNc1cc(N)[n+](CCCCCCC)c(Cl)c1C#N` [Compound 13], the IC50 in the assay with Monolinia fructicola is no more than 5 µg/mL. Moreover, in the assay on Phytophthora cinnamomi, the minimal effective concentration was no more than 2 µg/mL. Besides, the pest or weed control at 8000 g/ha in the assay on Fusarium oxysporum was 50%.
